Test: Solubility in water (statement)
Type: physicochemical

SMILES | solubility in water
CNC[C@H](O)[C@@H](O)[C@H](O)[C@H](O)CO.NC(=O)c1nc(F)cnc1O [Salt A, meglumine salt of 6-fluoro-3-hydroxy-2-pyrazinecarboxamide] | high
NC(=O)c1nc(F)c[nH]c1=O [Compound A, 6-fluoro-3-hydroxy-2-pyrazinecarboxamide] | low solubility in water
